Measurements reported in ChEMBL document CHEMBL4368907 (J Med Chem, 2019).
The source made the active and inactive calls. The calls are words filed in the database; no cut-off is given here. Numbered stars: 1 amine (or outer) side, 2 acyl side, 3 side chain; on linkers, the order of the positions; unused ones are H or OH. Square brackets hold non-standard residues; d marks the D form. Peptide text beside a SMILES is read from it. * marks the point of attachment. Phe(4-CH2SO3H) = N[C@@H](Cc1ccc(CS(=O)(=O)O)cc1)C(=O)O; sY = N[C@@H](Cc1ccc(OS(=O)(=O)O)cc1)C(=O)O; C18 diacid = O=C(O)CCCCCCCCCCCCCCCCC(=O)*; NMe1Nal = CN[C@@H](Cc1cccc2ccccc12)C(=O)O; γGlu = O=C(O)[C@H](CCC(=O)[*:2])N[*:1]; 1Nal = N[C@@H](Cc1cccc2ccccc12)C(=O)O; C14 diacid = O=C(O)CCCCCCCCCCCCC(=O)*; NMeF = CN[C@@H](Cc1ccccc1)C(=O)O; dNMeD = CN[C@H](CC(=O)O)C(=O)O; Nle = CCCC[C@H](N)C(=O)O; AEEA = NCCOCCOCC(=O)O

What was measured:
[1] = Terminal half life in Ellegaard Gottingen minipig at 5 nmol/kg, iv by LC-MS/MS analysis; assay type: ADME, organism-based, Sus scrofa; settings: pig, in vivo, read-out: beta t1/2 (converted)
[2] = target: T1, Gastrin/cholecystokinin type B receptor (Homo sapiens, UniProt P32239); assay: (§1) Displacement of [125I]-CCK-8 from human CCK2R expressed in human 1321N1 cell membranes after 2 hrs by SPA assay
T1 sequence (P32239 whole entry): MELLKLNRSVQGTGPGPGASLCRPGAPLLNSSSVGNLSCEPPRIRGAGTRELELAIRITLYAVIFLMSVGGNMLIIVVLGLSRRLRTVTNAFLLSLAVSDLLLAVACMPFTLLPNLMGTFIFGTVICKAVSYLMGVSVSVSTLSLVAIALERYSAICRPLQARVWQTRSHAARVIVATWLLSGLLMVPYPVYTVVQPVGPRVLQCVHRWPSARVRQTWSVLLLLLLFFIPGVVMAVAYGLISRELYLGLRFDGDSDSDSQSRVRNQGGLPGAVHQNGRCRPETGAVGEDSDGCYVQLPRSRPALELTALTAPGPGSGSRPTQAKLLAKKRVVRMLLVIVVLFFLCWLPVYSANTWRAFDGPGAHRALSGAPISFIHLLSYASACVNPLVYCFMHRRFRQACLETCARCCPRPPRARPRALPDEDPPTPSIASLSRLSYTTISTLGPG

[3] = target: T1, Gastrin/cholecystokinin type B receptor; assay: (§2) Agonist activity at human CCK2R expressed in human 1321N1 cells assessed as IP1 accumulation after 1 hr by HTRF assay; assay type: functional, cell-based
[4] = target: T2, Cholecystokinin receptor type A (Homo sapiens, UniProt P32238); assay: (§3) Agonist activity at human CCK1R expressed in human 1321N1 cells assessed as IP1 accumulation after 1 hr by HTRF assay; assay type: functional, cell-based
T2 sequence (P32238 whole entry): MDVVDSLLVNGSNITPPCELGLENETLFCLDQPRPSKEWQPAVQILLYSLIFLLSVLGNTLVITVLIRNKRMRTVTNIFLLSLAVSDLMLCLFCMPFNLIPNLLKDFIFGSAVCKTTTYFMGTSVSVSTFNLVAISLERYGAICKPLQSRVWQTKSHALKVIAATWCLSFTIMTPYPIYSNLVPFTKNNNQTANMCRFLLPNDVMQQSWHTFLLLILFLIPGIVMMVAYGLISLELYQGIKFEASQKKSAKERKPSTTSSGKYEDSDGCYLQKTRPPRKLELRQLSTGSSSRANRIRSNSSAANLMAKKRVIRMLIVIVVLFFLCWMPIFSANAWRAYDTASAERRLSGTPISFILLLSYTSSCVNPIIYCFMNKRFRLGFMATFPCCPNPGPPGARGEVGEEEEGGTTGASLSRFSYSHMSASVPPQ

[5] = target: T3, Gastrin/cholecystokinin type B receptor (Homo sapiens) (UniProt P32239); assay: as §1
T3 sequence (whole entry): T1 sequence (P32239 whole entry)

[6] = target: T4, Cholecystokinin receptor type A (Homo sapiens) (UniProt P32238); assay: (§4) Displacement of [125I]-CCK-8 from human CCK1R expressed in human 1321N1 cell membranes after 2 hrs by SPA assay
T4 sequence (whole entry): T2 sequence (P32238 whole entry)

[7] = target: T3, Gastrin/cholecystokinin type B receptor (Homo sapiens); assay: as §2; assay type: functional, cell-based
[8] = target: T4, Cholecystokinin receptor type A (Homo sapiens); assay: as §3; assay type: functional, cell-based
[9] = target: T2, Cholecystokinin receptor type A; assay: as §4

SMILES | half-life [1] [h] | IC50 [2] [nM] | EC50 [3] [nM] | EC50 [4] [nM] | pIC50 [5] | pIC50 [6] | pEC50 [7] | pEC50 [8] | IC50 [9] [nM]
CCCC[C@H](NC(=O)[C@H](Cc1c[nH]c2ccccc12)NC(=O)CNC(=O)[C@H](CC(C)C)NC(=O)[C@H](Cc1ccc(OS(=O)(=O)O)cc1)NC(=O)[C@H](CC(=O)O)NC(=O)COCCOCCNC(=O)COCCOCCNC(=O)CC[C@H](NC(=O)CCCCCCCCCCCCCCCCC(=O)O)C(=O)O)C(=O)N(C)[C@H](CC(=O)O)C(=O)N(C)[C@@H](Cc1cccc2ccccc12)C(N)=O ({C18 diacid-γGlu-AEEA-AEEA}-D[sY]LGW[Nle][dNMeD][NMe1Nal]-NH2) | 147 | 2040 | 151 | 0.407 |  |  |  |  | 
CCCC[C@H](NC(=O)[C@H](Cc1ccc(OS(=O)(=O)O)cc1)NC(=O)[C@H](CC(=O)O)NC(=O)COCCOCCNC(=O)COCCOCCNC(=O)CC[C@H](NC(=O)CCCCCCCCCCCCCCCCC(=O)O)C(=O)O)C(=O)NCC(=O)N[C@@H](Cc1c[nH]c2ccccc12)C(=O)N[C@@H](CO)C(=O)N[C@@H](CC(=O)O)C(=O)N[C@@H](Cc1ccccc1)C(N)=O ({C18 diacid-γGlu-AEEA-AEEA}-D[sY][Nle]GWSDF-NH2) |  |  |  |  | inactive | inactive | inactive | inactive | 
CCCC[C@H](NC(=O)[C@H](Cc1ccc(OS(=O)(=O)O)cc1)NC(=O)[C@H](CC(=O)O)NC(=O)COCCOCCNC(=O)COCCOCCNC(=O)CC[C@H](NC(=O)CCCCCCCCCCCCCCCCC(=O)O)C(=O)O)C(=O)NCC(=O)N[C@@H](Cc1c[nH]c2ccccc12)C(=O)N[C@@H](CCCC)C(=O)N(C)[C@H](CC(=O)O)C(=O)N[C@@H](Cc1cccc2ccccc12)C(N)=O ({C18 diacid-γGlu-AEEA-AEEA}-D[sY][Nle]GW[Nle][dNMeD][1Nal]-NH2) | 140 |  | 89.1 | 0.363 |  |  |  |  | 0.0741
CCCC[C@H](NC(=O)[C@H](Cc1ccc(OS(=O)(=O)O)cc1)NC(=O)[C@H](CC(=O)O)NC(=O)COCCOCCNC(=O)COCCOCCNC(=O)CC[C@H](NC(=O)CCCCCCCCCCCCCCCCC(=O)O)C(=O)O)C(=O)NCC(=O)N[C@@H](Cc1c[nH]c2ccccc12)C(=O)N[C@@H](Cc1ccccc1)C(=O)N[C@@H](CC(=O)O)C(=O)N[C@@H](Cc1ccccc1)C(N)=O ({C18 diacid-γGlu-AEEA-AEEA}-D[sY][Nle]GWFDF-NH2) |  |  |  |  | inactive | inactive | inactive | inactive | 
CCCC[C@H](NC(=O)[C@H](Cc1c[nH]c2ccccc12)NC(=O)CNC(=O)[C@H](CC(C)C)NC(=O)[C@H](Cc1ccc(CS(=O)(=O)O)cc1)NC(=O)[C@H](CC(=O)O)NC(=O)COCCOCCNC(=O)COCCOCCNC(=O)CC[C@H](NC(=O)CCCCCCCCCCCCC(=O)O)C(=O)O)C(=O)N(C)[C@H](CC(=O)O)C(=O)N(C)[C@@H](Cc1ccccc1)C(N)=O ({C14 diacid-γGlu-AEEA-AEEA}-D[Phe(4-CH2SO3H)]LGW[Nle][dNMeD][NMeF]-NH2) | 2 |  |  | 0.182 |  |  |  |  | 0.155
CCCC[C@H](NC(=O)[C@H](Cc1ccc(OS(=O)(=O)O)cc1)NC(=O)[C@H](CC(=O)O)NC(=O)COCCOCCNC(=O)COCCOCCNC(=O)CC[C@H](NC(=O)CCCCCCCCCCCCCCCCC(=O)O)C(=O)O)C(=O)NCC(=O)N[C@@H](Cc1c[nH]c2ccccc12)C(=O)N[C@@H](CC(C)C)C(=O)N[C@@H](CC(=O)O)C(=O)N[C@@H](Cc1ccccc1)C(N)=O |  |  |  |  | Active | Active | Active | Active | 
CCCC[C@H](NC(=O)[C@H](Cc1ccc(OS(=O)(=O)O)cc1)NC(=O)[C@H](CC(=O)O)NC(=O)COCCOCCNC(=O)COCCOCCNC(=O)CC[C@H](NC(=O)CCCCCCCCCCCCCCCCC(=O)O)C(=O)O)C(=O)NCC(=O)N[C@@H](Cc1c[nH]c2ccccc12)C(=O)N[C@@H](C)C(=O)N[C@@H](CC(=O)O)C(=O)N[C@@H](Cc1ccccc1)C(N)=O ({C18 diacid-γGlu-AEEA-AEEA}-D[sY][Nle]GWADF-NH2) |  |  |  |  | inactive | inactive | inactive | inactive | 
